Source: patent publication US20100048611A1, “TETRAHYDROPYRROLOPYRIDINE, TETRAHYDROPYRAZOLOPYRIDINE, TETRAHYDRO-IMIDAZOPYRIDINE AND TETRAHYDROTRIAZOLOPYRIDINE DERIVATIVES AND USE THEREOF” (Bayer Healthcare AG, priority 2006, published 2010)

Target: human factor Xa (FXa) (Homo sapiens, UniProt P00742)
Test: Determination of the factor Xa inhibition (chromogenic substrate)
Assay type: biochemical
Conditions: chromogenic substrate Pefachrome FXa, 25° C., extinction at 405 nm
Experimental: a.1) Determination of the Factor Xa Inhibition:
The enzymatic activity of human factor Xa (FXa) is measured using the conversion of a chromogenic substrate specific for FXa. Factor Xa cleaves p-nitroaniline from the chromogenic substrate. The determinations are carried out in microtitre plates as follows:
The test substances, in various concentrations, are dissolved in DMSO and incubated for 10 minutes at 25° C. with human FXa ([…] dissolved in 50 mmol of Tris buffer [C,C,C-tris(hydroxymethyl)aminomethane], 150 mmol/l of NaCl, 0.1% BSA [bovine serum albumin], pH=8.3). Pure DMSO is used as control. The chromogenic substrate (150 μmol/l of Pefachrome® FXa from Pentapharm) is then added. After an incubation time of 20 minutes at 25° C., the extinction at 405 nm is determined.

Chain of human factor Xa (FXa) (P00742 235-488 limits assumed): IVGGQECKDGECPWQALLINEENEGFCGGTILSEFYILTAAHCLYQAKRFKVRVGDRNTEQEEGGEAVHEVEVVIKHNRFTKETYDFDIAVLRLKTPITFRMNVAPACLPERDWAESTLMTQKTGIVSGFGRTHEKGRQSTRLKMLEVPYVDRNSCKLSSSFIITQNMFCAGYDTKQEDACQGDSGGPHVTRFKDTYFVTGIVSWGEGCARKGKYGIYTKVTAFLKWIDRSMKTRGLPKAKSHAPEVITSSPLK
Chain of human factor Xa (FXa) (P00742 41-179 partner limits assumed): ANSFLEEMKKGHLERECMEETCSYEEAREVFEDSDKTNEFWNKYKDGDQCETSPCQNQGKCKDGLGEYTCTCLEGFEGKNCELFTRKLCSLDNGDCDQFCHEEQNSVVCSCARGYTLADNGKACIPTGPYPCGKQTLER

**Q.** With COc1ccc(-n2nc(C(N)=O)c3c2C(=O)N(c2ccc(N4CCOC4=N)cc2)CC3)cc1 [Example 1, 6-[4-(2-Imino-1,3-oxazolidin-3-yl)phenyl]-1-(4-methoxyphenyl)-7-oxo-4,5,6,7-tetrahydro-1H-pyrazolo[3,4-c]pyridine-3-carboxamide methanesulphonate] as the molecule, how does the IC50 read?
**A.** 0.8 nM
